{
  "source": "paper PMC6874683",
  "about": "“Pyrrothiogatain acts as an inhibitor of GATA family proteins and inhibits Th2 cell differentiation in vitro” (Scientific Reports, 2019)",
  "key": {"cytokine production": {"test_system": "cytokine production", "assay": "ELISA of cytokine production, total CD4+ T cells under IL-2 conditions", "format": "cell-based, mouse", "settings": "30 µM, five days", "description": "C57BL/6 mice were purchased from Clea (Clea Japan, Inc., Tokyo, Japan). Total CD4^+ T cells isolated from mouse spleen were prepared using a FITC anti-mouse CD4 antibody (Cat#100510, RM4–5, BioLegend) and anti-FITC-microbeads (Cat#130-097-050, Miltenyi Biotec). Naive CD4^+ T cells (CD44^low, CD62L^high) were prepared using a MojoSort Mouse CD4 T cell Isolation Kit (Cat#480033), BioLegend). Biotinylated anti-CD44 (Cat#103004, IM7) and anti-CD25 antibodies (Cat#102004, PC61) were purchased from BioLegend. […]\nThe CD4^+ T cells cultured for five days were stimulated using an immobilized anti-TCR-β mAb (3 µg/mL, H57–597, BioLegend) for 16 h, and the culture supernatants were recovered. The amount of cytokines in the recovered supernatants was determined with ELISA using the following antibodies and reagents: anti-IL-4 mAb (Cat#554387, BD Biosciences), biotin-anti-IL-4 mAb (Cat#554390, BD Biosciences), anti-IL-5 mAb (Cat#554393, BD Biosciences), biotin-anti-IL-5 mAb (Cat#554397, BD Biosciences), anti-IFN-γ mAb (Cat#551216, BD Biosciences), biotin-anti-IFN-γ mAb (Cat#554410, BD Biosciences), anti-IL-2 mAb (Cat#554424, BD Biosciences), biotin-anti-IL-2 mAb (Cat#554426, BD Biosciences), streptavidin horseradish peroxidase (Cat#434323, Invitrogen), and TMB peroxidase EIA substrate kit (Cat#1721066, BioRad). […]"}, "Th2 cell differentiation": {"test_system": "Th2 cell differentiation", "assay": "Intracellular cytokine staining, naive CD4+ T cells under Th2 conditions", "format": "cell-based, mouse", "settings": "30 and 80 µM, 5 days", "description": "C57BL/6 mice were purchased from Clea (Clea Japan, Inc., Tokyo, Japan). Total CD4^+ T cells isolated from mouse spleen were prepared using a FITC anti-mouse CD4 antibody (Cat#100510, RM4–5, BioLegend) and anti-FITC-microbeads (Cat#130-097-050, Miltenyi Biotec). Naive CD4^+ T cells (CD44^low, CD62L^high) were prepared using a MojoSort Mouse CD4 T cell Isolation Kit (Cat#480033), BioLegend). Biotinylated anti-CD44 (Cat#103004, IM7) and anti-CD25 antibodies (Cat#102004, PC61) were purchased from BioLegend. CD4^+ T cells (7.5 × 10^5) were stimulated using immobilized anti-TCR-β mAb (3 µg/mL, H57–597, BioLegend) plus an anti-CD28 mAb (1.0 µg/mL, cat#40–0281, TONBO Biosciences) for 2 days, and then, the cells were further expanded under similar conditions for an additional 3 days. IL-2 conditions: IL-2 (10 ng/mL, Pepro Tech); Th2 conditions: IL-2 (10 ng/mL, Pepro Tech), IL-4 (1 ng/mL, Pepro Tech), and anti-IFN-γ mAb (2.5 µg/mL, cat#40–731, TONBO Biosciences). […]\nThe in vitro differentiated CD4^+ T cells were stimulated using an immobilized anti-TCR-β mAb (3 µg/ml, H57–597, BioLegend) for 6 h in the presence of monensin (2 µM). […] Flow cytometry was performed using a Gallios Flow Cytometer instrument (Beckman Coulter) and a FACS Caliber instrument (BD Biosciences) and the results were analysed using the FlowJo software program (Tree Star, Ashland, OR, USA)."}},
  "data": [
    {"smiles": "Cc1ccc(C)n1-c1ccsc1C(=O)O", "note": "[Pyrrothiogatain, 3-(2,5-dimethyl-1H-pyrrol-1-yl)thiophene-2-carboxylic acid]", "values": [
      {"measurement": "Production of IFN-γ (ELISA)", "setting": "cytokine production", "result": "Increased"},
      {"measurement": "Production of IL-4, IL-5, IL-10, and IL-13 (ELISA)", "setting": "cytokine production", "result": "decreased"},
      {"measurement": "Generation of IL-4-, IL-5-, and IL-13-producing Th2 cells", "setting": "Th2 cell differentiation", "result": "repressed"}
    ]}
  ]
}
